{
  "source": "paper PMC6588243",
  "about": "“Fate of ptaquiloside—A bracken fern toxin—In cattle” (PLoS ONE, 2019)",
  "assay_type_in_all_cases": "in vivo, Jersey heifers",
  "key": {"[1]": {"test": "Toxicokinetics of PTA and PTB in plasma after intravenous administration of PTA", "conditions": "for AUC0-∞: PTA in plasma; for k el / clearance / MRT / Vd: iv; for k el: read-out: λz terminal slope (converted)", "method": "Two heifers (no’s 4848 and 4849) were used in a series of five experiments (Table 1) in a cross-over design including intravenous administration of pure PTA, oral administration of bracken extract and oral administration of dried bracken fern. At least 2 weeks elapsed between each experiment.\nIntravenous administration of PTA. In Experiment 1 the dose of purified PTA (0.21 mg kg^-1 body weight (b.w.) / 0.527 μmoles kg^-1) was dissolved in 10 mL of sterile water in a brown glass vial 1 hour before administration and protected from light. The solution was injected through a catheter (Cavafix Certo: 45 cm, 16 G; B. Braun Melsungen AG, Melsungen, Germany) placed in the right jugular vein. Blood samples were collected through another catheter placed in the left jugular vein. Blood samples were collected in heparinized glass tubes before and at predetermined times (10, 20, 30, 45 min and 1, 2, 4, 6, 8, 12, 21 and 24 hours) after PTA administration. The blood was centrifuged for 15 min at 3000 g to separate plasma which then was stored immediately at -18°C until assayed within a week following the method of Aranha et al.. Urine was collected quantitatively in urinary bags (Ratiomed GmBH, München, Germany) through a Foley catheter (Rusch Silasil no 16; Teleflex, Milan, Italy) inserted into the bladder. Samples were collected before and at predetermined times (1, 2, 4, 6, 8, 12, 20 and 24 hours) after PTA administration. Two replicates from each sample were diluted 10 times (0.5 mL: 4.5 mL) with 0.1 M acetic acid, buffered to pH 5 with ammonium acetate and frozen immediately at -18°C until assayed within a week following the method of Aranha et al.. […] In this experiment, PTA was dissolved in sterile water immediately before injection.\n(§1) Concentrations of PTA in plasma of individual animals were evaluated by non-compartmental analysis. Toxicokinetic variables were calculated using standard kinetic equations. The area under the curve (AUC) and the area under the first moment curve (AUMC) were determined using combined linear and natural logarithm trapezoidal rules. The terminal elimination rate was determined using the last three data points of the curve.\n(§2) PTA and PTB were analysed by LC-MS after purification using solid phase extraction (SPE) columns as reported in Aranha et al.. The limit of quantification of PTA and PTB in plasma was 3.0 x 10^−3 μM and 9.30 x 10^−3 μM, respectively. Limit of quantifications in diluted urine was 13 x 10^−3 μM for PTA and 8.28 x 10^−3μM for PTB."}, "[2]": {"test": "Urinary recovery after oral administration of bracken extract or dried bracken fern", "conditions": "bracken extract or dried bracken fern", "method": "Oral exposure, bracken extract. Bracken extract was administered orally by gavage in Experiment 2 (170 and 172 mL) and Experiment 5 (820 and 850 mL), to obtain PTA doses of 0.41 and 2 mg kg^-1 b.w (1.025 and 5.000 μmoles kg^-1), respectively. Blood and urine samples were collected up to 48 hours after gavage and samples were processed and stored as described previously.\nOral exposure, dried bracken fern. In Experiment 3, dried bracken fern was milled to a fine powder. Immediately before administration, the powder was mixed with water to produce a slurry (15 g of bracken per 100 mL of water). The slurry was administered orally by gavage (400 mL and 380 mL) corresponding to a PTA dose of 1.6 mg kg^-1 b.w (4 μmoles kg^-1). Blood and urine samples were collected up to 72 hours after gavage and the samples were processed and stored as described above.\nas §2"}, "[3]": {"test": "One-week repeated dose trial with dried bracken, plasma toxicokinetics", "conditions": "dried bracken, 7 days", "from_the_text": "The two heifers used for the single dose trials were also used for the one week repeated dose study together with an additional two Jersey heifers (no’s 1550 and 1567; Harald Hansen Eftf. I/S, Slangerup, Denmark) weighing 163 to 237 kg. The additional two heifers had never been exposed to PTA or to bracken fern. A wash-out period of 20 days between the last single-dose experiment and the one week repeated dose trial was established for heifers no’s 4848 and 4849.\nAll four heifers were fed dried bracken powder (top-dressed and molasses added). twice a day during a period of 7 days providing a daily PTA dose of 2 mg kg^-1 (5 μmoles kg^-1). On Day 8, the heifers no 4848 and no 1567 were additionally fed in the morning and euthanized 1 hour after using a captive bolt pistol and exsanguination. The two other heifers (no 4849 and no 1550) were euthanized 15 h after the last dose on Day 7 (Fig 2).\nBlank blood samples were collected before the first dose was given. On Day 1 and Day 7 blood samples were collected after the morning dose at predetermined time points between 1 and 6 h after dosing (1, 2, 3, 5 and 6 hours). On Day 2 to Day 6 blood samples were collected daily 1 hour after 50% or more of the morning feed had been ingested, since the bracken fern was not eaten instantly. On Day 8 blood samples were collected just before euthanasia. Blood samples were processed and stored as described above.\nas §1"}},
  "note": "Read-outs that look alike come from different tables or passages of the source.",
  "data": [
    {"smiles": "CC1=C[C@]2(O[C@@H]3O[C@H](CO)[C@@H](O)[C@H](O)[C@H]3O)C[C@@H](C)C(=O)[C@@H]2[C@](C)(O)C12CC2", "note": "[PTA, (2'R,3a'R,4'S,7a'R)-4'-Hydroxy-2',4',6'-trimethyl-3'-oxo-2',3',3a',4'-tetrahydrospiro[cyclopropane-1,5'-inden]-7a'(1'H)-yl β-D-glucopyranoside]", "values": [
      {"measurement": "AUC0-∞", "setting": "[1]; iv PTA 0.141 μmoles kg^-1, heifer no 4849, head prints Experiment 2", "value": 0.42, "unit": "µM·h"},
      {"measurement": "AUC0-∞", "setting": "[1]; iv PTA 0.231 μmoles kg^-1, heifer no 4848, head prints Experiment 2", "value": 0.829, "unit": "µM·h"},
      {"measurement": "AUC0-∞", "setting": "[1]; iv PTA 0.527 μmoles kg^-1, heifer no 4848, Experiment 1", "value": 1.39, "unit": "µM·h"},
      {"measurement": "AUC0-∞", "setting": "[1]; iv PTA 0.527 μmoles kg^-1, heifer no 4849, Experiment 1", "value": 1.35, "unit": "µM·h"},
      {"measurement": "k el", "setting": "[1]; female, Jersey, bovine, plasma, 0.141 μmoles kg^-1, iv PTA 0.141 μmoles kg^-1, heifer no 4849, head prints Experiment 2, plasma", "value": "6.72e-05", "unit": "s⁻¹"},
      {"measurement": "clearance", "setting": "[1]; female, Jersey, bovine, plasma, 0.141 μmoles kg^-1, iv PTA 0.141 μmoles kg^-1, heifer no 4849, head prints Experiment 2, read-out: Cl (body) body clearance (converted)", "value": 5.57, "unit": "mL/min/kg"},
      {"measurement": "MRT", "setting": "[1]; female, Jersey, bovine, plasma, 0.141 μmoles kg^-1, iv PTA 0.141 μmoles kg^-1, heifer no 4849, head prints Experiment 2, read-out: MRT mean residence time", "value": 2.48, "unit": "h"},
      {"measurement": "Vd", "setting": "[1]; female, Jersey, bovine, plasma, 0.141 μmoles kg^-1, iv PTA 0.141 μmoles kg^-1, heifer no 4849, head prints Experiment 2, read-out: Vss apparent volume of distribution at steady-state", "value": 0.83, "unit": "L/kg"},
      {"measurement": "k el", "setting": "[1]; female, Jersey, bovine, plasma, 0.231 μmoles kg^-1, iv PTA 0.231 μmoles kg^-1, heifer no 4848, head prints Experiment 2, plasma", "value": 0.000105, "unit": "s⁻¹"},
      {"measurement": "clearance", "setting": "[1]; female, Jersey, bovine, plasma, 0.231 μmoles kg^-1, iv PTA 0.231 μmoles kg^-1, heifer no 4848, head prints Experiment 2, read-out: Cl (body) body clearance (converted)", "value": 4.72, "unit": "mL/min/kg"},
      {"measurement": "MRT", "setting": "[1]; female, Jersey, bovine, plasma, 0.231 μmoles kg^-1, iv PTA 0.231 μmoles kg^-1, heifer no 4848, head prints Experiment 2, read-out: MRT mean residence time", "value": 2.04, "unit": "h"},
      {"measurement": "Vd", "setting": "[1]; female, Jersey, bovine, plasma, 0.231 μmoles kg^-1, iv PTA 0.231 μmoles kg^-1, heifer no 4848, head prints Experiment 2, read-out: Vss apparent volume of distribution at steady-state", "value": 0.567, "unit": "L/kg"},
      {"measurement": "k el", "setting": "[1]; female, Jersey, bovine, plasma, 0.527 μmoles kg^-1, iv PTA 0.527 μmoles kg^-1, heifer no 4848, Experiment 1, plasma", "value": "4.25e-05", "unit": "s⁻¹"},
      {"measurement": "clearance", "setting": "[1]; female, Jersey, bovine, plasma, 0.527 μmoles kg^-1, iv PTA 0.527 μmoles kg^-1, heifer no 4848, Experiment 1, read-out: Cl (body) body clearance (converted)", "value": 6.33, "unit": "mL/min/kg"},
      {"measurement": "MRT", "setting": "[1]; female, Jersey, bovine, plasma, 0.527 μmoles kg^-1, iv PTA 0.527 μmoles kg^-1, heifer no 4848, Experiment 1, read-out: MRT mean residence time", "value": 2.99, "unit": "h"},
      {"measurement": "Vd", "setting": "[1]; female, Jersey, bovine, plasma, 0.527 μmoles kg^-1, iv PTA 0.527 μmoles kg^-1, heifer no 4848, Experiment 1, read-out: Vss apparent volume of distribution at steady-state", "value": 1.14, "unit": "L/kg"},
      {"measurement": "k el", "setting": "[1]; female, Jersey, bovine, plasma, 0.527 μmoles kg^-1, iv PTA 0.527 μmoles kg^-1, heifer no 4849, Experiment 1, plasma", "value": "3.19e-05", "unit": "s⁻¹"},
      {"measurement": "clearance", "setting": "[1]; female, Jersey, bovine, plasma, 0.527 μmoles kg^-1, iv PTA 0.527 μmoles kg^-1, heifer no 4849, Experiment 1, read-out: Cl (body) body clearance (converted)", "value": 6.48, "unit": "mL/min/kg"},
      {"measurement": "MRT", "setting": "[1]; female, Jersey, bovine, plasma, 0.527 μmoles kg^-1, iv PTA 0.527 μmoles kg^-1, heifer no 4849, Experiment 1, read-out: MRT mean residence time", "value": 3.84, "unit": "h"},
      {"measurement": "Vd", "setting": "[1]; female, Jersey, bovine, plasma, 0.527 μmoles kg^-1, iv PTA 0.527 μmoles kg^-1, heifer no 4849, Experiment 1, read-out: Vss apparent volume of distribution at steady-state", "value": 1.49, "unit": "L/kg"},
      {"measurement": "Vd", "setting": "[1]; female, Jersey, bovine, plasma, 0.21 mg/kg, iv PTA 0.21 mg kg^-1 b.w., average of two heifers, read-out: apparent volume of distribution at steady state (Vss)", "value": "~1.3", "unit": "L/kg"},
      {"measurement": "MRT", "setting": "[1]; female, Jersey, bovine, plasma, iv PTA, abstract and discussion, read-out: mean residence time (MRT), as summarised", "value": "≤ 4", "unit": "h"},
      {"measurement": "half-life", "setting": "[1]; female, Jersey, bovine, plasma, iv purified PTA, read-out: terminal half-life", "value": "≤ 6", "unit": "h"},
      {"measurement": "Vd", "setting": "[1]; female, Jersey, cattle, plasma, 0.21 mg/kg, iv PTA 0.21 mg kg^-1 b.w., average of two heifers, read-out: apparent volume of distribution at steady state (Vss)", "value": 1.3, "unit": "L/kg"},
      {"measurement": "clearance", "setting": "[1]; female, Jersey, cattle, plasma, 0.21 mg/kg, iv PTA 0.21 mg kg^-1 b.w., average of two heifers, read-out: average clearance (converted)", "value": 6.5, "unit": "mL/min/kg"},
      {"measurement": "MRT", "setting": "[1]; female, Jersey, cattle, plasma, 0.21 mg/kg, iv PTA 0.21 mg kg^-1 b.w., average of two heifers, read-out: average of the mean residence time (MRT)", "value": 3.4, "unit": "h"},
      {"measurement": "MRT", "setting": "[1]; female, Jersey, cattle, plasma, iv PTA, abstract and discussion, read-out: mean residence time (MRT), as summarised", "value": 4, "unit": "h"},
      {"measurement": "time after which the plasma concentration was below the limit of quantification", "setting": "[1]; iv PTA 0.21 mg kg^-1 b.w.", "value": 12, "unit": "h"},
      {"measurement": "PTA in urine after oral administration", "setting": "[2]", "value": "neither detected"},
      {"measurement": "PTA in plasma after repeated oral administration", "setting": "[3]", "value": "not detected"}
    ]}
  ]
}
